The source of these data is ChEMBL document CHEMBL1137215, “A 4'-C-ethynyl-2',3'-dideoxynucleoside analogue highlights the role of the 3'-OH in anti-HIV active 4'-C-ethynyl-2'-deoxy nucleosides” (J Med Chem, 2004).

Experiment [1] has as its system MT2. The experiment can be described thus: Inhibitory concentration against HIV LAI in MT-2 cells when tested at a range of 0.001-10 uM concentration; Inactive. The class given is functional, cell-based, Homo sapiens.
In experiment [2] the test system is MT4. The experiment can be described thus: Inhibitory concentration against HIV LAI in MT-4 cells when tested at a range of 0.001-10 uM concentration; Inactive. The class given is functional, cell-based, Homo sapiens.
Experiment [3] has as its system MT2. The experiment can be described thus: Inhibitory concentration of compound against HIV LAI in MT-2 cells when tested at a range of 0.001-10 uM concentration. The class given is functional, cell-based. Conditions: Homo sapiens; call rule not given here.
Experiment [4] concerns MT4. The experiment can be described thus: Inhibitory concentration of compound against HIV LAI in MT-4 cells when tested at a range of 0.001-10 uM concentration. The class given is functional, cell-based. Conditions: Homo sapiens.

As for `C#C[C@@]1(CO)CCC(n2ccc(N)nc2=O)O1` (some centres undefined), the IC50 entry in experiment [1] and in experiment [2] was “Not Active” in each case.
`CC(C)c1nc(CN(C)C(=O)N[C@H](C(=O)N[C@@H](Cc2ccccc2)C[C@H](O)[C@H](Cc2ccccc2)NC(=O)OCc2cncs2)C(C)C)cs1` [RITONAVIR]: the IC50 in experiment [3] and in experiment [4] was 0.01 µM each time.
